This data set has as its system CCRIS mutagenicity, Ames/micronucleus/aberration tests. Nature of the data set: CCRIS mutagenicity studies.
Setting [1] is: Test System: AMES SALMONELLA TYPHIMURIUM, Strain/Indicator: TA98, Metabolic Activation: NONE, Method: STANDARD PLATE.
Setting [2] is: Test System: AMES SALMONELLA TYPHIMURIUM, Strain/Indicator: TA100, Metabolic Activation: NONE, Method: STANDARD PLATE.

Active and inactive are the calls of the source. How the calls were made is not given here.

On to `COc1ccc(-c2nc(-c3ccccc3)c(-c3ccccc3)[nH]2)cc1OC`, for which the mutagenic call was “active; positive” under setting [1]; “active; positive” under setting [2]; “active; positive” (Test System: AMES SALMONELLA TYPHIMURIUM, Strain/Indicator: TA100, Metabolic Activation: RAT LIVER S-9, 3-METHYLCHOLANTHRENE, SODIUM PHENOBARBITAL, Method: STANDARD PLATE).

On to `O=[N+]([O-])C1=Cc2c3ccc4ccccc4c3cc3cccc1c23`, for which the mutagenic call runs as follows: under setting [1], “active; positive”; (Test System: AMES SALMONELLA TYPHIMURIUM, Strain/Indicator: TA98, Metabolic Activation: RAT, LIVER, S-9, AROCLOR 1254, Method: STANDARD PLATE) “active; positive”; under setting [2], “inactive; negative”; (Test System: AMES SALMONELLA TYPHIMURIUM, Strain/Indicator: TA100, Metabolic Activation: RAT, LIVER, S-9, AROCLOR 1254, Method: STANDARD PLATE) “inactive; negative”; (Test System: AMES SALMONELLA TYPHIMURIUM, Strain/Indicator: TA1535, Metabolic Activation: NONE, Method: STANDARD PLATE) “inactive; negative”; (Test System: AMES SALMONELLA TYPHIMURIUM, Strain/Indicator: TA1535, Metabolic Activation: RAT, LIVER, S-9, AROCLOR 1254, Method: STANDARD PLATE) “inactive; negative”. For the same molecule, the mutagenic call reads like this: (Test System: AMES SALMONELLA TYPHIMURIUM, Strain/Indicator: TA1537, Metabolic Activation: NONE, Method: STANDARD PLATE) “active; positive”; (Test System: AMES SALMONELLA TYPHIMURIUM, Strain/Indicator: TA1537, Metabolic Activation: RAT, LIVER, S-9, AROCLOR 1254, Method: STANDARD PLATE) “active; positive”; (Test System: AMES SALMONELLA TYPHIMURIUM, Strain/Indicator: TA1538, Metabolic Activation: NONE, Method: STANDARD PLATE) “active; positive”; (Test System: AMES SALMONELLA TYPHIMURIUM, Strain/Indicator: TA1538, Metabolic Activation: RAT, LIVER, S-9, AROCLOR 1254, Method: STANDARD PLATE) “inactive; negative”.

With `Nc1cccc2c1-c1ccccc1C2`, the mutagenic call is “active; positive” (Test System: AMES SALMONELLA TYPHIMURIUM, Strain/Indicator: TA98, Metabolic Activation: RAT, LIVER, S-9, AROCLOR 1254 (2 OR 4%), Method: STANDARD PLATE); “active; positive” (Test System: AMES SALMONELLA TYPHIMURIUM, Strain/Indicator: TA100, Metabolic Activation: RAT, LIVER, S-9, AROCLOR 1254 (2%), Method: STANDARD PLATE); “inactive; negative” (Test System: AMES SALMONELLA TYPHIMURIUM, Strain/Indicator: TA1535, Metabolic Activation: RAT, LIVER, S-9, AROCLOR 1254 (2%), Method: STANDARD PLATE); “inactive; negative” (Test System: AMES SALMONELLA TYPHIMURIUM, Strain/Indicator: TA1537, Metabolic Activation: RAT, LIVER, S-9, AROCLOR 1254 (2%), Method: STANDARD PLATE).

For `CN(N)C=O`, the mutagenic call is “inactive; negative” (Test System: AMES SALMONELLA TYPHIMURIUM, Strain/Indicator: TA1535, Metabolic Activation: NONE, Method: PREINCUBATION); “inactive; negative” (Test System: AMES SALMONELLA TYPHIMURIUM, Strain/Indicator: TA1535, Metabolic Activation: RAT, LIVER, S-9, AROCLOR 1254, Method: PREINCUBATION); “inactive; negative” (Test System: AMES SALMONELLA TYPHIMURIUM, Strain/Indicator: TA1537, Metabolic Activation: NONE, Method: PREINCUBATION); “inactive; negative” (Test System: AMES SALMONELLA TYPHIMURIUM, Strain/Indicator: TA1537, Metabolic Activation: RAT, LIVER, S-9, AROCLOR 1254, Method: PREINCUBATION).

Regarding `CCCCCCCC/C=C\CCCCCCCCCCCC(=O)NCCCCCCCCCCCCCCCCCC`, the mutagenic call is “inactive; negative” (Test System: AMES SALMONELLA TYPHIMURIUM, Strain/Indicator: TA97, Metabolic Activation: NONE, Method: STANDARD PLATE); “inactive; negative” (Test System: AMES SALMONELLA TYPHIMURIUM, Strain/Indicator: TA97, Metabolic Activation: S-9, Method: STANDARD PLATE); “inactive; negative” under setting [1]; “inactive; negative” (Test System: AMES SALMONELLA TYPHIMURIUM, Strain/Indicator: TA98, Metabolic Activation: S-9, Method: STANDARD PLATE); “inactive; negative” under setting [2]; “inactive; negative” (Test System: AMES SALMONELLA TYPHIMURIUM, Strain/Indicator: TA100, Metabolic Activation: S-9, Method: STANDARD PLATE). Besides, the mutagenic call reads like this: (Test System: AMES SALMONELLA TYPHIMURIUM, Strain/Indicator: TA102, Metabolic Activation: NONE, Method: STANDARD PLATE) “inactive; negative”; (Test System: AMES SALMONELLA TYPHIMURIUM, Strain/Indicator: TA102, Metabolic Activation: S-9, Method: STANDARD PLATE) “inactive; negative”; (Test System: E.COLI, Strain/Indicator: WP2 (PKM101), Metabolic Activation: NONE, Method: STANDARD PLATE) “inactive; negative”; (Test System: E.COLI, Strain/Indicator: WP2 (PKM101), Metabolic Activation: S-9, Method: STANDARD PLATE) “inactive; negative”.

As to `C[C@]12O[C@H]1[C@H]1CCCC[C@@H]1c1ccccc12`, the mutagenic call was “inactive; negative” under setting [1] and “inactive; negative” under setting [2].

In the case of `COCC(O)Cn1cc([N+](=O)[O-])nc1Cl` (stereo unspecified), the mutagenic call under setting [1] is “inactive; negative”; the mutagenic call (Test System: AMES SALMONELLA TYPHIMURIUM, Strain/Indicator: TA98, Metabolic Activation: RAT, LIVER, S-9, Method: STANDARD PLATE) was “active; positive”; the mutagenic call under setting [2] is “active; positive”; the mutagenic call (Test System: AMES SALMONELLA TYPHIMURIUM, Strain/Indicator: TA100, Metabolic Activation: RAT, LIVER, S-9, Method: STANDARD PLATE) is “active; positive”.

For `CN1CCNCC1`, the mutagenic call is, setting by setting: (Test System: AMES SALMONELLA TYPHIMURIUM, Strain/Indicator: TA98, Metabolic Activation: NONE, Method: PREINCUBATION) “inactive; negative”; (Test System: AMES SALMONELLA TYPHIMURIUM, Strain/Indicator: TA98, Metabolic Activation: RAT, LIVER, S-9, PCB, Method: PREINCUBATION) “inactive; negative”; (Test System: AMES SALMONELLA TYPHIMURIUM, Strain/Indicator: TA100, Metabolic Activation: NONE, Method: PREINCUBATION) “inactive; negative”; (Test System: AMES SALMONELLA TYPHIMURIUM, Strain/Indicator: TA100, Metabolic Activation: RAT, LIVER, S-9, PCB, Method: PREINCUBATION) “inactive; negative”.

The values are drawn from PubChem BioAssay AID1259407 (Chemical Carcinogenesis Research Information System (CCRIS), 2018).
